Assay results published in publication PMC11650849, “Brain endothelial permeability, transport, and flow assessed over 10 orders of magnitude using the in situ brain perfusion technique” (Fluids and Barriers of the CNS, 2024).
Read-outs that look alike come from different tables or passages of the source.

Legend:
[1] = cited from earlier work; for Log Poct: octanol partition coefficient
[2] = cited from earlier work
[3] = rat
[4] = Neutral fraction at pH 7.4 calculated from pKa; assay type: physicochemical
[5] = rat, in vivo
[6] = for Brain Kin: calculated at brain blood flow […] and rat serum fu; for Extraction (unbound) / Brain vascular extraction (total): calculated at brain blood flow […]; for Extraction (unbound): free drug; for Brain vascular extraction (total): with rat serum fu
[7] = In situ rat brain perfusion (brain uptake Kin, extraction E, BBB PS); conditions: for Log Pc: Pc in cm/s; for Log Po: Po in cm/s; for Log PoS: PoS in mL/s/g; for Pc / Po: S assumed 100 cm^2/g; for PcS: cerebral cortex, S = physiological saline, AB = artificial blood
[8] = rat in vivo measurements; cited from earlier work
[9] = ref Hansch et al. [123], Avdeef [46] or other sources
[10] = neutral fraction at perfusion fluid pH 7.40, calculated from pKa
[11] = intrinsic PS of neutral solute, PoS = PcS/fn, flow 0.1–[…]

Row | SMILES | Log Pc ([5]; pH 7.4) | Log PoS ([5]; pH 7.4) | PcS ([5]; pH 7.4) | PoS ([5]; pH 7.4) | Log Po ([5]; pH 7.4) | Po ([5]; pH 7.4) | Log Poct [1, 9] | Log Doct pH=7.4 [1, 9] | fu,.p ([2]; rat in vivo measurements) | Extraction (unbound) [6] | Brain vascular extraction (total) [6] | fn (%) [4, 10] | also measured
1 | OCCCCO [1,4-Butanediol] | −3.82 | −1.82 | 0.015 mL/s/g | 0.0151 mL/s/g | −3.82 | 0.000151 cm/s | – | – | – | – | – | – | Log Doct pH=7.4 [1]: −0.52; fu,.p ([2]; rat): 1.00; half-life [3]: 1.14 min; fn (%) ([4]; pH 7.4): 100%; Pc ([5]; pH 7.4): 151 ×10⁻⁶ cm/s
2 | Nc1c(O)cccc1C(=O)O [3-hydroxy-anthranilic acid] | −5.88 | −1.05 | 0.00013 mL/s/g | 0.0886 mL/s/g | −3.05 | 0.000886 cm/s | 1.05 | −1.78 | 1.00 | 0.54% | 0.54% | 0.15% | Brain Kin [6]: 0.000131 mL/s/g; Pc ([5]; pH 7.4): 1.31 ×10⁻⁶ cm/s
3 | CC(N)=O [Acetamide] | – | – | – | – | – | – | – | – | – | – | – | 100% | –
4 | Cc1nnc2n1-c1ccc(Cl)cc1C(c1ccccc1)=NC2 [Alprasolam] | – | – | – | – | – | – | – | – | – | – | – | 100% | –
5 | Nc1ccccc1C(=O)O [Anthranilic acid] | – | – | – | – | – | – | 1.21 | −1.27 | 0.50 | – | – | 0.33% | Log Pc [7]: −4.92; Log Po [7]: −2.44; Log PoS [7]: −0.44; Pc [7]: 11.9 ×10⁻⁶ cm/s; Po [7]: 3600 ×10⁻⁶ cm/s; PoS ([7]; brain vascular intrinsic PoS): 0.36 mL/s/g; PcS ([7]; flow 0.1–[…]): 0.0012 mL/s/g; PoS [7, 11]: 0.36 mL/s/g
6 | CCCCO [Butanol] | – | – | – | – | – | – | – | – | – | 99.8% | 97.5% | 100% | fu,.p ([2]; rat): 0.60; Brain Kin [6]: 0.0229 mL/s/g; Peak flow rate for 90% E ([6]; protein-free physiologic saline pH 7.4): 3.8 mL/min/g; Maximal flow—90% extraction, PcS/2.3 ([6]; protein-free saline, pH 7.4): 0.064 mL/s/g; Pc [5]: 1470 ×10⁻⁶ cm/s; PcS [5]: 0.15 mL/s/g; PoS [5]: 0.13 mL/s/g; Po [5]: 0.00127 cm/s
7 | O=C(O)CCCc1ccc(N(CCCl)CCCl)cc1 [Chlorambucil] | −3.54 | 1.26 | 0.029 mL/s/g | 18.14 mL/s/g | −0.74 | 0.18 cm/s | 3.41 | 0.61 | 0.01 | – | – | 0.16% | half-life [3]: 1.23 min; half-life ([3]; plasma): 1.2 min; Brain Equilibration t1/2, Measured ([5]; pH 7.4): 0.75 min; Pc ([5]; pH 7.4): 287 ×10⁻⁶ cm/s
8 | CN(C)CCCN1c2ccccc2Sc2ccc(Cl)cc21 [Chlorpromazine] | −2.51 | 1.30 | 0.31 mL/s/g | 19.8 mL/s/g | −0.70 | 0.20 cm/s | – | – | 0.0354 | 100% | 36.6% | 1.42% | half-life ([3]; brain): 61.1 min; Brain Kin [6]: 0.00885 mL/s/g; Maximal flow—90% extraction, PcS/2.3 ([6]; protein-free saline, pH 7.4): 0.13 mL/s/g; BBB PcS ([5]; pH 7.4): 0.31 ± 0.05 mL/s/g; Extraction (Kin/F) ([5]; pH 7.4): 100%; Pc ([5]; pH 7.4): 3090 ×10⁻⁶ cm/s
9 | C[C@]12CC[C@H](O)CC1=CC[C@@H]1[C@@H]2CC[C@]2(C)C(=O)CC[C@@H]12 [DHEA] | – | – | – | – | – | – | 3.00 | 3.00 | 0.05 | – | – | 100% | –
10 | CN(C)CCOC(c1ccccc1)c1ccccc1 [Diphenhydramine] | – | – | – | – | – | – | – | – | – | – | – | 1.96% | –
11 | CCO [Ethanol] | – | – | – | – | – | – | – | – | – | 83.0% | 81.4% | – | fu,.p ([2]; rat): 0.95; Brain Kin [6]: 0.0195 mL/s/g
12 | CN1C(=O)CN=C(c2ccccc2F)c2cc([N+](=O)[O-])ccc21 [Flunitrazepam] | – | – | – | – | – | – | 2.03 | 2.03 | 0.19 | – | – | 100% | Best fit PcS ([5]; pH 7.4): 0.14 mL/s/g
13 | CCCCCCO [Hexanol] | – | – | – | – | – | – | – | – | 0.30 | 99.9% | 89.1% | 100% | –
14 | CC(C)Cc1ccc(C(C)C(=O)O)cc1 (centres unmarked) [Ibuprofen] | – | – | – | – | – | – | – | – | 0.016 | – | – | 0.11% | Brain Vu,br [8]: 3.38 mL/g
15 | CC(C)NC(C)Cc1ccc(I)cc1 (centres unmarked) [Iofetamine, isopropyl-iodoamphetamine] | – | – | – | – | – | – | 3.26 | 1.75 | 0.25 | – | – | 3.07% | half-life [3]: 3.16 min; Maximal flow—90% extraction, PcS/2.3 ([6]; pH 7.4): 0.13 mL/s/g; Peak flow rate for 90% E ([6]; pH 7.4): 7.6 mL/min/g; Log Pc [7]: −2.54; Log Po [7]: −1.02; Log PoS [7]: 0.98; Pc [7]: 2910 ×10⁻⁶ cm/s; Po [7]: 94900 ×10⁻⁶ cm/s; PoS ([7]; brain vascular intrinsic PoS): 9.49 mL/s/g; PcS ([7]; flow 0.1–[…]): 0.29 mL/s/g; PoS [7, 11]: 9.49 mL/s/g; BBB PcS ([7]; protein-free saline, differing/elevated flow rates, best fit): 0.238 mL/s/g
16 | O=C(O)c1cc(=O)c2ccccc2[nH]1 [Kynurenic acid] | −5.92 | 0.42 | 0.00012 mL/s/g | 2.60 mL/s/g | −1.58 | 0.026 cm/s | – | – | 1.00 | – | – | 4.6E−7% | –
